According to ChEMBL document CHEMBL1201862, “PubChem BioAssay data set” (2004):
Calls of active or inactive are those of the source.

Columns and labels:
[1] = HEp-2 cell cytotoxicity, dose response, cytotoxicity control for RSV inhibitor project, HTS (AID 2410); assay type: functional; conditions: human respiratory syncytial virus
[2] = Luminescence Cell-Based Dose Response HTS to Identify Activators of Luciferase Translation or Activity in H4 […] Cells. [Related pubchem assays: 1829 (Project Summary), 1814 (Primary HTS)]; assay type: functional
[3] = tested on: H4; assay: Luminescence Cell-Based Dose Response HTS to Identify Activators of 5'UTR Stem-Loop Driven Prion Protein mRNA Translation in H4 Neuroglioblastoma Cells. [Related pubchem assays: 1829 (Project Summary), 1814 (Primary HTS)]; assay type: functional; conditions: Homo sapiens
[4] = target: T1, Calpain-2 catalytic subunit (Sus scrofa, UniProt P43367); assay: pig calpain II inhibitor potency, dose response, biochemical, fluorogenic peptide substrate (AID 1420); assay type: functional
T1 sequence (P43367 whole entry): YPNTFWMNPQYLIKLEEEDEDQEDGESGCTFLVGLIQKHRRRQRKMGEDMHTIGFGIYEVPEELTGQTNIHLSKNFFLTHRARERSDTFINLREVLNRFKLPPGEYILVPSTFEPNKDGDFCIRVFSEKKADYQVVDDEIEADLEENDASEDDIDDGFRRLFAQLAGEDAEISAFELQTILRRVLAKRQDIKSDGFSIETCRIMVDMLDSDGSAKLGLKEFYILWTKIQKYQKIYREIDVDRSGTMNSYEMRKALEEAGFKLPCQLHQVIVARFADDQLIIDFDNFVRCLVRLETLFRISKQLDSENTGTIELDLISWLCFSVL

[5] = Luminescence Cell-Based Dose Retest to Confirm Inhibitors of Cancer Stem Cells. [Related pubchem assays (depositor defined):AID2717, AID2721]; assay type: functional; conditions: Homo sapiens
[6] = tested on: H9c2; assay: cells; assay type: functional, cell-based; conditions: Rattus norvegicus, H9c2, Myocardium;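 further: confirmatory concentration-response retest of ultra-high-throughput screening hits for modulation of myocardial damage; cell death induced by hydrogen peroxide oxidative stress; compound pretreatment for 60 min then peroxide exposure for 2 h; potency is for protecting the cells against peroxide damage rather than for killing them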
[7] = target: Luciferin 4-monooxygenase (Photinus pyralis, UniProt P08659); assay: firefly luciferase enzyme inhibitors, dose response, biochemical, luminescence (AID 1891)
[8] = Luminescence Cell-Based Dose Confirmation HTS to Identify Inhibitors of Platelet Dense Granule Release. [Related pubchem assays: 1663 (Primary HTS), 1678 (Summary of Project)]; assay type: functional
[9] = inhibitors of intracellular T. cruzi replication, confirmation, NIH3T3 host cells, beta-gal luminescence (AID 2044); assay type: functional, cell-based;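 further: intracellular parasites grown in NIH/3T3 mouse fibroblasts as host cells; luminescent beta-galactosidase reporter signal from transgenic T. cruzi replicating inside host cells; inhibitors lower the luminescence signal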
[10] = cytotoxicity toward NIH3T3 fibroblasts, dose response, counter-screen, cell-based, ATP luminescence, mouse fibroblasts (AID 2010); assay type: functional;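 further: cells exposed to compound for about 90 hours before reading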
[11] = target: T2, Rac GTPase-activating protein 1 (Homo sapiens, UniProt Q9H0H5); assay: MgcRacGAP GTPase-activating activity inhibitors, confirmation, biochemical, ADP Hunter fluorescence, primary and confirmatory (AID 624330); assay type: functional
T2 sequence (Q9H0H5 whole entry): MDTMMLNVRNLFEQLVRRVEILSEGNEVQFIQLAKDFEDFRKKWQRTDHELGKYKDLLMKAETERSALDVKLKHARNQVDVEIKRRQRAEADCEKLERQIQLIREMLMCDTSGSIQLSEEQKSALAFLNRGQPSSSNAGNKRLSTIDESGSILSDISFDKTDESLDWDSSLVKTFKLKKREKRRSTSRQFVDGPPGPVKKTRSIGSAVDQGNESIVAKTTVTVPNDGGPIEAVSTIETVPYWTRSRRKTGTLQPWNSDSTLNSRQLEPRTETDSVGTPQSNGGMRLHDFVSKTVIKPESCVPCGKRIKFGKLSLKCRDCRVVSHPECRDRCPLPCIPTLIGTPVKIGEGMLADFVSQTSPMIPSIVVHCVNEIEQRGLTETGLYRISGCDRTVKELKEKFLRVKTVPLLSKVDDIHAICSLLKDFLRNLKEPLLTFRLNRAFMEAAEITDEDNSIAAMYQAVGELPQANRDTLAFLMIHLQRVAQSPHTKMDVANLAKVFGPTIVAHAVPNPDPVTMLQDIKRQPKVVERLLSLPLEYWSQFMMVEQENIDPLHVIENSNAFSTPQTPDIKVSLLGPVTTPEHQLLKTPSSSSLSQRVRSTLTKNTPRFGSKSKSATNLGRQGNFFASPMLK

[12] = Luminescence Cell-Based Dose Response HTS to Identify Inhibitors of 5'UTR Stem-Loop Driven Prion Protein mRNA Translation in H4 Neuroglioblastoma Cells. [Related pubchem assays: 1827 (Project Summary), 1813 (Primary HTS)]; assay type: functional
[13] = target: T3, Corticotropin-releasing factor receptor 2/Corticotropin-releasing factor-binding protein (Homo sapiens, UniProt P24387+Q13324); assay: Dose Response confirmation of uHTS hits for small molecule antagonists of the CRF-binding protein and CRF-R2 receptor complex.; assay type: functional; conditions: read-out: IC50_Mean
T3 sequence (Q13324 whole entry): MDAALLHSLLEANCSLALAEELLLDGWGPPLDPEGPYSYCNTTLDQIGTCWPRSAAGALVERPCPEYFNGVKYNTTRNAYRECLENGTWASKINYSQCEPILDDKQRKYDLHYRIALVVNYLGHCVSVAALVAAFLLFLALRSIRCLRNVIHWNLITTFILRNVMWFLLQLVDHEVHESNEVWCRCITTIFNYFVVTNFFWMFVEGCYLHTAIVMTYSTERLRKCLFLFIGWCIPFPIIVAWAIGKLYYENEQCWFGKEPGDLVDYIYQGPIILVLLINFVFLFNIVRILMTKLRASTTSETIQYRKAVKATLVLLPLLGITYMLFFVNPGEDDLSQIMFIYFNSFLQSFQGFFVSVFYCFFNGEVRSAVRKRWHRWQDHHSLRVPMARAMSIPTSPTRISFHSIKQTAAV
T3 sequence (P24387 whole entry): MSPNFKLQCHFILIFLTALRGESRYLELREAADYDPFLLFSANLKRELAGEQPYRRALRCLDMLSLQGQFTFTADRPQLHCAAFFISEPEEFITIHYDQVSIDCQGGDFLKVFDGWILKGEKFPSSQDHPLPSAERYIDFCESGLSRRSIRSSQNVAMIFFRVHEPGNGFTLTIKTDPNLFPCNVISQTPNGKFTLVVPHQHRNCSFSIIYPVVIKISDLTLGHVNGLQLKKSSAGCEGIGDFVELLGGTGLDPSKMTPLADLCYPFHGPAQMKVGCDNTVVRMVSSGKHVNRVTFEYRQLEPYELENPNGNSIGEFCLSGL

[14] = target: T3, Corticotropin-releasing factor receptor 2/Corticotropin-releasing factor-binding protein; assay: activators of CRF receptor 2 with binding protein – uHTS hits, confirmation (AID 602473); assay type: functional; conditions: read-out: EC50_Mean
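Wherever AC50 is given: cells exposed to compound for roughly 70 hours or longer before luminescence read.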

Sequence of Luciferin 4-monooxygenase (P08659 whole entry): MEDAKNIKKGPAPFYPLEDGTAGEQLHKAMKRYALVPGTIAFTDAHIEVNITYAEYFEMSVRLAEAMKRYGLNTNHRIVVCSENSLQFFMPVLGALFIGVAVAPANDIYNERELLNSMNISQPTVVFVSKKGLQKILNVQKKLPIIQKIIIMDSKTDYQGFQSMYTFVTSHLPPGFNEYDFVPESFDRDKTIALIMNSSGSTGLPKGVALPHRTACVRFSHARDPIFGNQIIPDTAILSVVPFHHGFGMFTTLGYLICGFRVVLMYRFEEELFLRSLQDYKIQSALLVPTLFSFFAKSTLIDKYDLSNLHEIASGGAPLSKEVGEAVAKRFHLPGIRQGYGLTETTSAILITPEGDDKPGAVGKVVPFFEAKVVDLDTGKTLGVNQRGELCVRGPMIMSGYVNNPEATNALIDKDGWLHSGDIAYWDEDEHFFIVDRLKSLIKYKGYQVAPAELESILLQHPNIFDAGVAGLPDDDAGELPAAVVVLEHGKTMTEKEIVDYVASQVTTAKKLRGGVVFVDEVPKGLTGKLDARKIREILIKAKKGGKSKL

## Cc1ccc(C2(CCNCc3ccc(N(C)C)cc3)CCOC(C(C)C)C2)cc1 (stereo not drawn)
[1]
  CC50: 12.6 µM (active)

## O=C(/C=C/c1c(F)cccc1Cl)Nc1nc2ccccc2[nH]1
[2]
  EC50: 0.14 µM (inconclusive)
[3]
  EC50: 10.4 µM (active)

## CCOc1ccccc1Cn1c(=O)sc2ccccc21
[4]
  IC50: 13.1 µM (not active)

## CC(C)CCNc1nc(-c2ccco2)c2c(c1C#N)CCCC2
[5]
  AC50: 10.4 µM (active)

## COc1ccc(/C=C/C2=NC(=C\N(C)C)/C(=O)O2)cc1
[2]
  EC50: 11.2 µM (active)
[3]
  EC50: 8.24 µM (active)

## CCOC(=O)N1CCc2c(sc(NC(=O)CN3CCOCC3)c2C(=O)Nc2ccccc2)C1
[6]
  IC50: 22.8 µM (active)

## O=C(CCN1Cc2ccccc2C1)c1ccc2c(c1)OCCO2
[5]
  AC50: 11.5 µM (active)

## Cc1cc2nnc(SC(C)C)n2c2ccccc12
[1]
  CC50: > 50 µM (active)

## COc1ccccc1NC(=O)/C(=C/c1cccs1)NC(=O)c1ccco1
[4]
  IC50: 26 µM (not active)

## CC(C)N(Cc1nc(-c2ccccc2)no1)C(=O)CCCN1C(=O)c2ccccc2C1=O
[4]
  IC50: > 50 µM (not active)

## COc1ccc(CC(=O)NCC(=O)N/N=C/c2cc(Br)ccc2OC)cc1
[6]
  IC50: 34.7 µM (inactive)

## Cc1ccc(OCCn2cc(/C=C(\C#N)C(=O)NCC3CCCO3)c3ccccc32)cc1 (stereo not drawn)
[1]
  CC50: 38.7 µM (active)

## Cc1ccc(C2CCN(C(S)=Nc3cccc(C)c3)C2)cc1 (stereo not drawn)
[4]
  IC50: 9.72 µM (not active)

## O=C(c1cc(COc2c(F)cccc2F)on1)N1CCC(c2ccccc2Cl)C1 (stereo not drawn)
[4]
  IC50: 4.48 µM (not active)

## [2H]c1c([2H])c([2H])c(-c2nc(N3CCCCCC3)sc2C(=O)c2ccccc2)c([2H])c1[2H]
[1]
  CC50: 41.6 µM (active)

## S=C(NCC1CC1)N/N=C/c1ccccc1Cl
[7]
  EC50: > 112 µM (not active)
[8]
  EC50: > 112 µM (not active)

## COc1ccc(C(=O)Nc2ccccc2C(=O)N/N=C/c2ccncc2)cc1OC
[7]
  EC50: 0.609 µM (active)
[8]
  EC50: 0.564 µM (active)

## O=C(CN1C(=O)C2CC=CCC2C1=O)Nc1nc(-c2ccc(F)c(F)c2)cs1 (stereo not drawn)
[6]
  IC50: > 79 µM (inactive)

## COc1ccccc1N(Cc1ccccc1)S(=O)(=O)c1cccc(C(=O)Nc2ccc(C)cn2)c1
[1]
  CC50: 11 µM (active)
[9]
  EC50: 1.58 µM (active)
[10]
  EC50: > 30 µM (not active)

## CCc1ccc(NC(=O)Nc2ccsc2C(=O)OC)cc1
[7]
  EC50: 0.701 µM (active)
[8]
  EC50: 2.06 µM (active)

## CN(C)S(=O)(=O)n1cc(/C=C(\NC(=O)c2ccccc2F)C(=O)NCCN2CCOCC2)c2ccccc21
[6]
  IC50: > 79 µM (inactive)

## COc1cccc(C2CC(c3ccccc3OC)n3nc(N)nc3N2)c1 (stereo not drawn)
[4]
  IC50: > 50 µM (not active)

## Cc1ccc(-c2nnc(NCc3nc4ccccc4[nH]3)c3ccccc23)cc1S(=O)(=O)N1CCOCC1
[6]
  IC50: > 79 µM (inactive)

## CC(=O)Nc1ccccc1C(=O)C(=O)Nc1cccc(C(=O)NCC2CCCO2)c1 (stereo not drawn)
[4]
  IC50: 7.39 µM (not active)

## C/C(=N\O)[C@H]1CC[C@H]2[C@@H]3CC[C@H]4C/C(=N\O)CC[C@]4(C)[C@H]3C(C)(O)C[C@]12C (stereo partly drawn)
[6]
  IC50: > 79 µM (inactive)

## CCN(CC)c1nc(SCCOC(=O)Nc2ccccc2)nc(N(CC)CC)n1
[9]
  EC50: 1.73 µM (active)
[10]
  EC50: > 60 µM (not active)
[5]
  AC50: 2.79 µM (active)

## O=c1oc(Nc2cccc(Cl)c2)nc2ccccc12
[7]
  EC50: 37.7 µM (active)
[8]
  EC50: 16 µM (active)

## O=C(COc1ccc(Br)cc1CO)Nc1ccccc1F
[1]
  CC50: 35.2 µM (active)

## CCOc1ccc(CC(=O)Nc2c(C(N)=O)oc3ccc(Br)cc23)cc1OCC
[6]
  IC50: > 79 µM (inactive)

## Cc1ccc(-c2nc3ccccc3[nH]2)s1
[7]
  EC50: 0.951 µM (active)
[8]
  EC50: 7.89 µM (active)

## COc1ccc(OC)c(NC(=O)c2sc3ncnc(N4CCN(c5ccccn5)CC4)c3c2C)c1
[6]
  IC50: > 79 µM (inactive)

## COc1ccc(OC)c(Nc2nc(NCc3ccco3)c3ccccc3n2)c1
[7]
  EC50: 18.7 µM (active)
[8]
  EC50: 49 µM (active)

## Fc1ccc(-c2ccc(-c3nn4c(-c5ccco5)nnc4s3)o2)cc1
[6]
  IC50: 36.1 µM (inactive)

## O=C(CSc1ccc(-c2ccccc2)nn1)N1CCCCC1
[2]
  EC50: 25.4 µM (active)
[3]
  EC50: 65.2 µM (active)

## Cn1c(=O)n(C)c2cc([N+](=O)[O-])c(N3CCN(CCO)CC3)cc21
[4]
  IC50: 7.45 µM (not active)

## N#CCCN(C(=O)COC(=O)CCc1nc(O)c2ccccc2n1)c1ccc(F)cc1
[6]
  IC50: > 79 µM (inactive)

## CCCCC(=O)Nc1nc(C)c(-c2csc(Nc3cc(Cl)ccc3OC)n2)s1
[1]
  CC50: 26.5 µM (active)

## COc1ccc(-c2nnc(SC(C)C(=O)Nc3cccc(Cl)c3)o2)cc1 (stereo not drawn)
[4]
  IC50: 11.7 µM (not active)

## COc1ccccc1C(=O)Nc1ccc(S(=O)(=O)N(C)c2ccccc2)cc1
[1]
  CC50: 29.4 µM (active)

## CCCCn1c(N)c(N(CC(C)C)C(=O)c2ccc(Br)s2)c(=O)[nH]c1=O
[7]
  EC50: > 112 µM (not active)
[8]
  EC50: > 112 µM (not active)

## Oc1ccc(/C=C/c2ccc3ccccc3n2)cc1
[1]
  CC50: 19.7 µM (active)
[7]
  EC50: 0.161 µM (active)
[8]
  EC50: 0.235 µM (active)
[11]
  IC50: 28 µM (active)

## O=C(O)c1ccc(-c2noc(-c3ccccc3F)n2)cc1
[7]
  EC50: 1.45 µM (active)
[8]
  EC50: 1.6 µM (active)

## CCc1nnc(S)n1/N=C/c1c(C)nn(-c2ccccc2)c1Cl
[12]
  EC50: 19 µM (active)

## O=c1c2ccccc2nc(-c2ccc(Cl)c(Cl)c2)n1O
[6]
  IC50: > 79 µM (inactive)

## COc1cc(C(=O)N2CCN(c3ccc([N+](=O)[O-])cc3)CC2)ccc1OCc1c(C)noc1C
[7]
  EC50: 40.2 µM (active)
[8]
  EC50: > 112 µM (not active)

## CC(Sc1nnc(-c2ccc(O)cc2)o1)C(=O)Nc1cccc2ccccc12 (stereo not drawn)
[4]
  IC50: < 0.4 µM (not active)

## CC(CCc1ccco1)NC(=O)CCc1nnc2ccc(NCc3ccccc3)nn12 (stereo not drawn)
[7]
  EC50: > 112 µM (not active)
[8]
  EC50: > 112 µM (not active)
[13]
  IC50: > 47.1 µM (inactive)
[14]
  EC50: > 53 µM (inactive)

## CSc1ccc(/C=N/NC(=O)c2cc(O)cc(O)c2)cc1
[7]
  EC50: 1.22 µM (active)
[8]
  EC50: 10 µM (active)

## COc1ccc(NC(=O)CC2C(=O)N(C)C(=S)N2CCc2ccccc2)cc1 (stereo not drawn)
[1]
  CC50: 18 µM (active)

## CCN1CCN(c2nc(O)c3c(n2)CCCC3)CC1
[6]
  IC50: > 79 µM (inactive)
